The text below walks through data of patent publication US9260504B2, “N- and C-terminal substituted antagonistic analogs of GH-RH” (University of Miami, priority 2008, dated 2016).

Format in all cases: in vivo
Test [1] deals with H-460 human non-small cell lung cancer. Briefly: H-460 human non-SCLC xenografts in nude mice, Experiment 3. The following applies: 28 days; for Tumor growth inhibition after 4 weeks (%): 5 μg/day s.c.; for Inhibition of H-460 lung tumor growth compared with reference peptide JMR-132: 5 μg/day vs JMR-132 10 μg/day. The method, then:
Male nude mice were implanted s.c. with 3 mm^3 pieces of H-460 human non-SCLC tumor tissue on both flanks. When tumors had grown to a mean volume of approximately 90 mm^3, the mice were randomly assigned into 8 experimental groups with 8 to 10 animals in each group and received single daily injections for 28 days as follows: 1. Control (vehicle solution); 2. JMR-132 (10 μg/day s.c.); 3. Peptide 11123 (5 μg/day s.c.); 4. Peptide 11125 (5 μg/day s.c.); 5. Peptide 11307 (5 μg/day s.c.); 6. Peptide 11317 (5 μg/day s.c.); 7. Peptide 11473 (5 μg/day s.c.); 8. Peptide 11485 (5 μg/day s.c.). Tumor volumes were measured once a week. The experiment was ended on day 28 by sacrificing the mice under Isoflurane anesthesia. Resulting tumors were cleaned, weighed, and snap-frozen until further analyses. Statistical analyses of the measurement results were done by two-tailed t-test, p<0.05 being considered significant.

In test [2] the test system is PC-3 human hormone-independent prostate cancer. Briefly: PC-3 human prostate cancer xenografts in nude mice, Experiment 4. The following applies: for Tumor growth after 28 days (%) / Tumor growth after 46 days (%) / Inhibition (%): 2 μg/day s.c.; for Inhibitory effect on PC-3 tumors compared with reference peptide JMR-132: 2 μg/day vs JMR-132 10 μg/day, after 46 days of treatment. The method, then: (§1) Male nude mice were implanted s.c. with 3 mm^3 pieces of PC-3 human hormone-independent prostate cancer tissue on both flanks. When tumors reached a volume of approximately 50 mm^3, the mice were divided into 12 experimental groups with 8 to 10 animals in each group and received single daily injections for 28 days as follows: 1. Control (vehicle solution); 2. JMR-132 (10 μg/day s.c.); 3. Peptide 11113 (2 μg/day s.c.); 4. Peptide 11119 (2 μg/day s.c.); 5. Peptide 11209 (2 μg/day s.c.); 6. Peptide 11313 (2 μg/day s.c.); 7. Peptide 11408 (2 μg/day s.c.); 8. Peptide 11435 (2 μg/day s.c.); 9. Peptide 11457 (2 μg/day s.c.); 10. Peptide 11459 (2 μg/day s.c.); 11. Peptide 11469 (2 μg/day s.c.); 12. Peptide 11491 (2 μg/day s.c.).
(§2) Tumor volumes were measured once a week. The experiment was ended on day 28 by sacrificing the mice under Isoflurane anesthesia. Resulting tumors were cleaned, weighed, and snap-frozen until further analyses. Statistical analyses of the measurement results were done by two-tailed t-test, p<0.05 being considered significant.
All experimental details of Experiment 4 are the same as for Experiment 3, with the following difference. When tumors reached a volume of approximately 50 mm^3, the mice were divided into 11 experimental groups with 8 to 10 animals in each group and received single daily injections for 46 days as follows: 1. Control (vehicle solution); 2. JMR-132 (10 μg/day s.c.); 3. Peptide 11123 (2 μg/day s.c.); 4. Peptide 11125 (2 μg/day s.c.); 5. Peptide 11213 (2 μg/day s.c.); 6. Peptide 11433 (2 μg/day s.c.); 7. Peptide 11473 (2 μg/day s.c.); 8. Peptide 11485 (2 μg/day s.c.); 9. Peptide 11497 (2 μg/day s.c.); 10. Peptide 11499 (2 μg/day s.c.); 11. Peptide 11521 (2 μg/day s.c.). Tumor volumes were measured once a week. The experiment was ended on day 46 by sacrificing the mice under Isoflurane anesthesia. Resulting tumors were cleaned, weighed, and snap-frozen until further analyses. Statistical analyses of the measurement results were done by two-tailed t-test, p<0.05 being considered significant.

The test system is the same in test [3]. The test is described as follows: PC-3 human prostate cancer xenografts in nude mice, Experiment 3. The settings on record: 2 μg/day s.c., 28 days. The method, then: as §1, §2
For test [4], the system named is H-460 human non-small cell lung cancer. Briefly: H-460 human non-SCLC xenografts in nude mice, Experiment 2. The settings on record: 5 μg/day s.c.; for Tumor growth after 4 weeks (%): 28 days, means±S.E.; for Inhibition (%): after 4 weeks. As for the experimental part:
Male nude mice were implanted s.c. with 3 mm^3 pieces of H-460 human non-SCLC tumor tissue on both flanks. When tumors had grown to a mean volume of approximately 90 mm^3, the mice were randomly assigned into 12 experimental groups with 8 to 10 animals in each group and received single daily injections for 28 days as follows: 1. Control (vehicle solution); 2. JMR-132 (10 μg/day s.c.); 3. Peptide 11109 (5 μg/day s.c.); 4. Peptide 11113 (5 μg/day s.c.); 5. Peptide 11119 (5 μg/day s.c.); 6. Peptide 11209 (5 μg/day s.c.); 7. Peptide 11313 (5 μg/day s.c.); 8. Peptide 11408 (5 μg/day s.c.); 9. Peptide 11435 (5 μg/day s.c.); 10. Peptide 11459 (5 μg/day s.c.); 11. Peptide 11469 (5 μg/day s.c.); 12. Peptide 11491 (5 μg/day s.c.). Tumor volumes were measured once a week. The experiment was ended on day 28 by sacrificing the mice under Isoflurane anesthesia. Resulting tumors were cleaned, weighed, and snap-frozen until further analyses. Statistical analyses of the measurement results were done by two-tailed t-test, p<0.05 being considered significant. Data are presented as the means±S.E.

For test [5], the system named is NCI-N87 human gastric cancer. The test is described as follows: NCI-N87 human gastric cancer xenografts in nude mice. The settings on record: 10 μg/day s.c. As for the experimental part:
NCI-N87 cancers were transplanted s.c. into both flank areas of 30 female nude mice. The mice were randomly assigned into 4 experimental groups with 6 to 9 animals in each group and received single daily injections for 77 days as follows: 1. Control (vehicle solution); 2. JMR-132 (10 μg/day s.c.); 3. Peptide 1109 (10 μg/day s.c.); 4. Peptide 11479 (10 μg/day s.c.). Tumor volumes were measured once a week. The experiment was ended on day 77 by sacrificing the mice under Isoflurane anesthesia. Resulting tumors were cleaned, weighed, and snap-frozen until further analyses. Statistical analyses of the measurement results were done by two-tailed t-test, p<0.05 being considered significant. Data are presented as the means±S.E.

Turning to “[(CH3—(CH2)10—CO-Ada)^0-Tyr^1, D-Arg^2, Cpa^6, Ala^8, Har^9, Tyr(Me)^10, His^11, Abu^15, His^20, Nle^27, D-Arg^28, Har^29]hGH-RH(1-29)NH2 [Peptide 11125]”, in test [1], the “Tumor growth inhibition after 4 weeks (%)” value was 33.03% and the “Inhibition of H-460 lung tumor growth compared with reference peptide JMR-132” value was “more potently inhibited the growth of H-460 lung tumors than the reference peptide JMR-132”. Moreover, in test [2], the “Tumor growth after 28 days (%)” value is listed as 424%, the “Tumor growth after 46 days (%)” value was 1009% and the “Inhibitory effect on PC-3 tumors compared with reference peptide JMR-132” value is recorded as “had a more potent inhibitory effect than reference peptide JMR-132”. Also, the “Inhibition (%)” value in test [2] (after 28 days) is 68.97%. Also, the “Inhibition (%)” value in test [2] (after 46 days) is given as 69.69%.
Turning to “[PhAc^0-Tyr^1, D-Arg^2, Cpa^6, Ala^8, Har^9, Tyr(Me)^10, His^11, Abu^15, His^20, Nle^27, D-Arg^28, Har^29-Apa^30]hGH-RH(1-29)NH2 [Peptide 11209]”, the “Tumor growth inhibition after 4 weeks (%)” value in test [3] is reported as 48.04%. In addition, in test [4], the “Tumor growth after 4 weeks (%)” value was determined as 6377 ± 2477% and the “Inhibition (%)” value was 19.21%.
As for “[(Ac-Ada)^0-Tyr^1, D-Arg^2, Cpa^6, Ala^8, Har^9, Tyr(Me)^10, His^11, Abu^15, His^20, Nle^27, D-Arg^28, Har^29-Ada^30]hGH-RH(1-29)NH2 [Peptide 11317]”, in test [1], the “Tumor growth inhibition after 4 weeks (%)” value is recorded as 41.00% and the “Inhibition of H-460 lung tumor growth compared with reference peptide JMR-132” value is reported as “more potently inhibited the growth of H-460 lung tumors than the reference peptide JMR-132”.
Regarding “[(Ac-Amc)^0-Tyr^1, D-Arg^2, Cpa^6, (Me-Ala)^8, Har^9, Tyr(Me)^10, His^11, Abu^15, His^20, Nle^27, D-Arg^28, Har^29]hGH-RH(1-29)NH2 [Peptide 11408]”, in test [3], the “Tumor growth inhibition after 4 weeks (%)” value was 63.61%. For the same substance, in test [4], the “Tumor growth after 4 weeks (%)” value came out at 3998 ± 1113% and the “Inhibition (%)” value is listed as 49.35%.
Turning to “[(Ac-Amc)-Tyr^1, D-Arg^2, Cpa^6, Ala^8, Har^9, Tyr(Me)^10, His^11, Orn^12, Abu^15, His^20, Nle^27, D-Arg^28, Har^29-Amc^30]hGH-RH(1-29)NH2 [Peptide 11307]”, in test [1], the “Tumor growth inhibition after 4 weeks (%)” value came to 30.98% and the “Inhibition of H-460 lung tumor growth compared with reference peptide JMR-132” value was “more potently inhibited the growth of H-460 lung tumors than the reference peptide JMR-132”.
For “[(PhAc^0-Ada)-Tyr^1, D-Arg^2, Cpa^6, Ala^8, Har^9, Tyr(Me)^10, His^11, Orn^12, Abu^15, His^20, Orn^21, Nle^27, D-Arg^28, Har^29]hGH-RH(1-29)NH2 [Peptide 11459]”, the “Tumor growth inhibition after 4 weeks (%)” value in test [3] is given as 53.60%. In test [4], the “Tumor growth after 4 weeks (%)” value came out at 2418 ± 923% and the “Inhibition (%)” value is recorded as 69.36%.
In the case of “[(Ac-Ada)^0-Tyr^1, D-Arg^2, Cpa^6, Ala^8, Har^9, Tyr(Me)^10, His^11, Orn^12, Abu^15, His^20, Orn^21, Nle^27, D-Arg^28, Har^29-Ada^30]hGH-RH(1-29)NH2 [Peptide 11469]”, the “Tumor growth inhibition after 4 weeks (%)” value in test [3] is recorded as 78.07%. Besides, in test [4], the “Tumor growth after 4 weeks (%)” value stood at 4810 ± 1977% and the “Inhibition (%)” value was determined as 39.06%.
For “[Fer^0-Tyr^1, D-Arg^2, Cpa^6, Ala^8, Har^9, Tyr(Me)^10, His^11, Abu^15, His^20, Nle^27, D-Arg^28, Har^29]hGH-RH(1-29)NH2 [Peptide 11113]”, in that order: 29.37%, 6790 ± 3340% and 13.98%.
Consider “[(PhAc^0-Ada)-Tyr^1, D-Arg^2, Cpa^6, Ala^8, Har^9, Tyr(Me)^10, His^11, Orn^12, Abu^15, His^20, Orn^21, Nle^8, D-Arg^28, Har^29-Ada^30]hGH-RH(1-29)NH2 [Peptide 11473]”, for which, in test [1], the “Tumor growth inhibition after 4 weeks (%)” value is given as 54.64% and the “Inhibition of H-460 lung tumor growth compared with reference peptide JMR-132” value is recorded as “more potently inhibited the growth of H-460 lung tumors than the reference peptide JMR-132”. For the same substance, in test [2], the “Tumor growth after 28 days (%)” value was 442%, the “Tumor growth after 46 days (%)” value is given as 1072% and the “Inhibitory effect on PC-3 tumors compared with reference peptide JMR-132” value is given as “had a more potent inhibitory effect than reference peptide JMR-132”. In test [2] (after 28 days), the “Inhibition (%)” value is given as 67.68%. The “Inhibition (%)” value in test [2] (after 46 days) was determined as 67.80%.
Consider “[(Dca-Ada)^0-Tyr^1, D-Arg^2, Cpa^6, Ala^8, Har^9, Tyr(Me)^10, His^11, Abu^15, His^20, Nle^27, D-Arg^28, Har^29]hGH-RH(1-29)NH2 [Peptide 11123]”, for which, in test [1], the “Tumor growth inhibition after 4 weeks (%)” value amounted to 35.74% and the “Inhibition of H-460 lung tumor growth compared with reference peptide JMR-132” value is recorded as “more potently inhibited the growth of H-460 lung tumors than the reference peptide JMR-132”. Further, in test [2], the “Tumor growth after 28 days (%)” value worked out at 786% and the “Tumor growth after 46 days (%)” value turned out to be 1849%. For the same substance, in test [2] (after 28 days), the “Inhibition (%)” value worked out at 42.57%. The “Inhibition (%)” value in test [2] (after 46 days) is listed as 44.48%.
On to “[(Ac-Ada)^0-Tyr^1, D-Arg^2, (Phe(F)5)^6, Ala^8, Har^9, Tyr(Me)^10, His^11, Orn^12, Abu^15, His^20, Orn^21, Nle^27, D-Arg^28, Har^29]hGH-RH(1-29)NH2 [Peptide 11479]”, for which the “Number of regressing tumors” value in test [5] (77 days) was found to be 1. In addition, the “Tumor growth after 77 days (%)” value in test [5] (77 days, means±S.E.) turned out to be 235 ± 48 %. Further, the “Tumor weights” value in test [5] (day 77, means±S.E.) is listed as 144 ± 41 mg. In test [5] (calculated without the regressing tumors), the “Tumor doubling time” value is 156.7 ± 55.7 days.
As to “[(CH3—(CH2)10CO-Ada)^0-Tyr^1, D-Arg^2, Cpa^6, Ala^8, Har^9, Tyr(Me)^10, His^11, Orn^12, Abu^15, His^20, Orn^21, Nle^27, D-Arg^28, Har^29-Ada^30]hGH-RH(1-29)NH2 [Peptide 11485]”, in test [1], the “Tumor growth inhibition after 4 weeks (%)” value worked out at 9.04%. In test [2], the “Tumor growth after 28 days (%)” value is given as 794%, the “Tumor growth after 46 days (%)” value is 1257% and the “Inhibitory effect on PC-3 tumors compared with reference peptide JMR-132” value is “had a more potent inhibitory effect than reference peptide JMR-132”. For the same substance, in test [2] (after 28 days), the “Inhibition (%)” value was found to be 41.96%. In addition, the “Inhibition (%)” value in test [2] (after 46 days) was 62.24%.
